Test results taken from US20260191815A1, “THIOACRYLAMIDE DERIVATIVES FOR USE IN THE PREVENTION OR TREATMENT OF LIVER FIBROSIS” (CMR CUREDIAB METABOLIC RESEARCH GMBH, priority 2022, published 2026).

Assays:
[1] = system: alpha-1 type 1 collagen (COL1A1) protein in LX2 cells; assay: Simple Western of COL1A1 protein in TGF-β1-stimulated LX2 hepatic stellate cells; type: cell-based, human; conditions: for upregulation of COL1A1 in TGF-β1-treated LX2 cells: 10 μM, 30 min pretreatment, then 5 ng/ml TGF-β1 for 24 h; for protein abundance of COL1A1: sole treatment 10 μM for 24 h, LX2 cells, no TGF-β1
Experimental: (§1) The human hepatic stellate cell line LX2 was purchased from Merck. The cells were used up to passage ten and incubated under sterile conditions at 37° C. and 5% CO2. The cells were cultivated in medium containing Dulbecco's Modified Eagle's Medium with 4.5 g/l glucose (ThermoFisher), 4 mmol/l glutamine (ThermoFisher), 2% fetal bovine serum (FBS) (Merck), 100 U/ml penicillin and 100 μg/ml streptomycin (Merck). After 2 days, LX2 cells were starved for FBS for 24 h and then pretreated with 10 μM HK1 (Taros Chemicals GmbH & Co. KG) or 10 μM HK3 (Taros Chemicals GmbH & Co. KG) for 30 min. Subsequently, 5 ng/ml recombinant TGF-β1 (R&D Systems, Minneapolis, MN, USA) was added to the hepatic stellate cell cultures for 24 h. LX2 cells were also incubated with 5 ng/ml TGF-β1 alone as positive control for the hepatic stellate cell activation. Recombinant TGF-β1 was dissolved in sterile 4 mmol/l HCl (Merck) containing 0.1% bovine serum albumin (Roth Karlsruhe, Germany) as carrier protein. HK1 and HK3 were dissolved in sterile dimethyl sulfoxide (DMSO) (Sigma-Aldrich, Munich, Germany). Stimulations with 10 μM HK1, 10 μM HK3 and the corresponding vehicles (HCl and DMSO with or without HCl) alone for 24 h were also included as treatments.
(§2) For the measurement of the pro-fibrotic proteins, Western Blotting was performed. Proteins were extracted from whole cell lysate of LX2 cells using RIPA lysis buffer containing 50 mmol/l Tris-HCl (pH 8.0), 150 mmol/l NaCl, 1% IGEPAL® CA-630, 0.5% sodium deoxycholate, 0.1% sodium dodecyl sulfate, 10% PhosSTOP Phosphatase Inhibitor Cocktail (Roche, Basel, Switzerland) and 10% cOmplete Mini Protease Inhibitor Cocktail (Roche). Lysates were centrifuged at 14850×g for 15 min at 4° C. Then, the total protein content of the lysates was determined using a bicinchoninic acid protein assay (ThermoFisher Scientific) in accordance with the manufacturer's instructions. The quantification of protein abundance was performed by Simple Western size-based assays using a 12-230 kDa and 66-440 kDa Separation Module (ProteinSimple, San Jose, CA, USA) according to the manufacturer's instructions. This fully automated Western blotting system is based on a capillary electrophoresis technology. The separation, immobilization to the capillary wall via a proprietary, photoactivated capture chemistry and immunodetection of the proteins using a horseradish peroxidase (HRP)-conjugated secondary antibody and chemiluminescent substrate take place directly in the capillary without gel separation and transfer steps to blotting paper. The chemiluminescence is measured at multiple exposure times and automatically quantified by the Compass for Simple Western software (version 4.1.0) (ProteinSimple). The chemiluminescent signal for immunodetected proteins, which can be represented as an electropherogram or virtual blot-like image, is automatically quantified by calculation of the area under the curve of the peak.
(§3) The software reports the molecular weight, the area (in an arbitrary unit and in percent) and signal to noise ratio for each protein detected. The primary antibodies for the recognition of endogenous levels of total alpha-1 type 1 collagen (COL1A1) protein (#72026) and total fibronectin 1 (FN1) protein (#26836) were purchased from Cell Signaling Technology (Danvers, MA, USA). The anti-rabbit HRP-linked secondary antibody was from ProteinSimple. […]
(§4) Differences were analysed by one-way ANOVA followed by the Tukey method as correction for multiple testing.

[2] = system: caspase 3/7 activity in HepG2 cells; assay: Caspase 3/7 activity provoked by palmitate in HepG2 cells; type: cell-based; conditions: for reduction of the caspase 3/7 activity provoked by palmitate, compared among thioacrylamide derivatives: 100 nM + palmitate 200 μM, n=4; for activity at 10 µM: Homo sapiens, 10 μM pre-treatment 30 min + palmitate 200 μM, 24 h, read-out: caspase 3/7 activity, % of control
Experimental: The potential protective effect of HK1 and HK3 on caspase 3/7 activity in HepG2 cells and primary human hepatocytes was analysed.
HepG2 cells were obtained from Merck (Darmstadt, Germany) (ECACC-certified), while primary human hepatocytes were obtained from Thermo Fisher Scientific (Waltham, MA, USA), and all were cultured according to the instructions of the respective manufacturers. During experiments, cells were cultured in serum-free medium. Unless otherwise stated, cells were treated with 200 μM bovine serum albumin (BSA)-conjugated palmitate (Cayman Chemicals, Ann Arbor, MI) alone or in combination with 10 μM HK1 (Taros Chemicals GmbH & Co. KG, Dortmund, Germany) and HK3 (Taros Chemicals GmbH & Co. KG, Dortmund, Germany) 30 min prior to palmitate exposure for 24 hours. The vehicle BSA was used according to the palmitate concentration and DMSO according to HK1 and HK3 concentration. 2 μM Staurosporine (Abcam, Cambridge, GB) was used as a positive and 100 μM Caspase 3/7 inhibitor (CI) (Cayman Chemicals) as a negative control.
Differences were analysed by one-way ANOVA.
A hepatoprotective effect was determined as described in Example 4. A treatment was performed with HK1, HK2, HK3, HK4 or HK5 (100 nM) either alone or in combination with palmitate (200 μM).
Differences were analysed by one-way ANOVA, n=4.

[3] = system: fibronectin 1 (FN1) protein in LX2 cells; assay: Simple Western of FN1 protein in TGF-β1-stimulated LX2 hepatic stellate cells; type: cell-based, human; conditions: for upregulation of FN1 in TGF-β1-treated LX2 cells: 10 μM, 30 min pretreatment, then 5 ng/ml TGF-β1 for 24 h; for protein abundance of FN1: sole treatment 10 μM for 24 h, LX2 cells, no TGF-β1
Experimental: as §1, §2, §3, §4

SMILES	upregulation of COL1A1 in TGF-β1-treated LX2 cells [1]	protein abundance of COL1A1 [1]	reduction of the caspase 3/7 activity provoked by palmitate, compared among thioacrylamide derivatives [2]	activity at 10 µM [2] [%]	upregulation of FN1 in TGF-β1-treated LX2 cells [3]	protein abundance of FN1 [3]
Cc1cc(NC(=S)/C(C#N)=C(\O)C2CC2)ccc1F [HK1, 2-Cyano-3-cyclopropyl-N-(4-fluoro-3-methyl-phenyl)-3-hydroxy-thioacrylamide]	completely suppressed	no impact	stronger reduction	263	completely suppressed	no impact
Cc1cc(NC(=S)/C(C#N)=C(\O)C2CC2)ccc1[N+](=O)[O-] [HK3, 2-Cyano-3-cyclopropyl-3-hydroxy-N-(3-methyl-4-nitro-phenyl)-thioacrylamide]	completely suppressed	no impact	strongest reduction	42.3	completely suppressed	no impact
